Experiments:
HepG2 cells = assay: Cell viability, Cell Titer Fluor Assay, parallel to Seahorse assay; format: cell-based; settings: Homo sapiens, 1 h, one-hour incubation, read-out: IC50, cellular viability
Method: The purpose of this assay was to investigate the effect of the compound of formula (I-A) on mitochondrial respiration in HepG2 cells using the Agilent Seahorse XFe96 analyzer. Cell viability was also determined in HepG2 cells in parallel to the Seahorse assay.
Cell viability measurements: HepG2 cells were seeded onto black-walled 96 well plates at a density of 40,000 cells/well in EMEM containing 10% HI FBS and 1× Pen/Strep and allowed to attach overnight. The next day, test compounds were prepared and diluted in EMEM. Following a one-hour incubation with the test article(s), cell viability was assessed using the Cell Titer Fluor Assay (Promega, Cat no. G6081) according to the manufacturer's protocol. The viability assay monitors activity of […], a ubiquitous protease found in live cells.
Data Analyses: Mitochondrial SRC (spare respiratory capacity) was calculated by subtracting the rate of the basal respiration from the rate of the maximal respiration. SRC values were automatically generated by the Report Generator (Agilent Technologies-version 4.0). All experiments were run in triplicate and the mean and standard deviations were calculated for each test concentration. All data were normalized to vehicle controls.
IC50 values were determined by nonlinear regression and fitting of the dose response curves to a […] equation with variable slope (Hill coefficient): […]

[1] = test system: TK6 human lymphoblastoid cell line; assay: In vitro micronucleus assay; format: cell-based; settings: TK6 cells, 3 h +S9 and continuous -S9; score of 1 = clearly negative
Method: Biological Example 8: In Vitro Micronucleus Assay
The in vitro micronucleus test (MNT) is a genotoxicity test for the detection of micronuclei (MN) in the cytoplasm of interphase cells. Micronuclei may originate from acentric chromosome fragments (i.e., lacking a centromere) or whole chromosomes that are unable to migrate to the poles during the anaphase stage of cell division. Compounds and/or their metabolites are evaluated for their ability to induce chromosome/genome aberrations in a TK6 human lymphoblastoid cell line, in the absence and in the presence of a mammalian metabolic activation system. Human TK6 cells are often used in the in vitro micronucleus test and it is noteworthy that these cells have a wild-type p53 status, a feature that some groups speculate may help to reduce the frequency of false positive results. The assessment is done by means of manual and/or semi-automated microscopical analysis.
The in vitro micronucleus test using TK6 cells is an accepted regulatory genotoxicity assay. […]
Assay principle: Cell cultures were exposed to the test compound both with and without an exogenous source of metabolic activation. […] Harvested and stained interphase cells were analyzed for the presence of micronuclei. […]

**Q.** For `O=C1C=C(c2c(-n3cnnn3)ccc(Cl)c2F)C[C@H]2CC[C@@H](c3ncc(-c4ccnc(CO)c4F)[nH]3)N12` [Compound of formula (I-A), (3S,8aR)-7-(3-Chloro-2-fluoro-6-(1H-tetrazol-1-yl)phenyl)-3-(5-(3-fluoro-2-(hydroxymethyl)pyridin-4-yl)-1H-imidazol-2-yl)-2,3,8,8a-tetrahydroindolizin-5(1H)-one], which IC50 (HepG2 cells) is on record?
**A.** > 100 µM

**Q.** And the “in vitro MNT assay result” value [1]?
**A.** negative

— patent US12545677B2, “Compounds useful as factor XIa inhibitors” (JANSSEN PHARMACEUTICA NV, priority 2020, dated 2026)
